Laboratory results reported in patent US20130078224A1, “INDUCTION/MONITORING OF ARTERIOGENESIS USING SDF1 AND PDGFB OR INHIBITION OF PHD2” (LIFE SCIENCES RESEARCH PARTNERS VZW, priority 2010, published 2013).

What was measured:
PHD2 = PHD2 expression (qPCR) in bone marrow-derived monocyte/macrophage cultures upon cytokine stimulation; type: cell-based, mice; conditions: for PHD2 transcripts: WT cultures, any of the concentrations tested (50 and 250 ng/mL)
Method: Quantitative PCR Analysis: In order to investigate gene expression in pMØ, quantitative RT-PCR (qRT-PCR) was performed. After preparing pMØ, the cells were cultured in normoxic condition for twelve hours, and the RNA was extracted. To analyze the gene profile of adductor, gastrocnemius, and soleus muscle, tissues were collected at baseline or 24 hours/72 hours post-ischemia and RNA was extracted. Macrophages and ECs were freshly sorted from dissected adductors as described below and RNA was extracted. Quantitative RT-PCR was perfouned with commercially available or homemade primers and probes for the studied genes. The assay ID (Applied Biosystems, Foster City, Calif.) or the sequence of primers and probes (when homemade) are listed in Table 5. RNA levels of Tie-2, SDF1 and PDGFB after inhibition of NF-κB pathway were measured by qRT-PCR on pMØ exposed for twelve hours to 500 nM 6-amino-4-(4-phenoxyphenylethylamino)quinazoline. […] After 24 hours, cells were harvested for RNA extraction and cDNA preparation.

PHD3 = PHD3 gene knockdown (qRT-PCR) in macrophages; type: cell-based, mice
Method: Transduction and Transfection of Bone Marrow-Derived Macrophages and Lung Endothelial Cells: To express an inducible NF-κB responsive firefly luciferase reporter, commercially available lentiviral vector particles (LV) were used (Cignal Lenti NF-κB Reporter; SABiosciences). 2.5×10^5 bone marrow-derived macrophages and 10^5 primary lung endothelial cells (isolated as previously described (Mazzone et al., 2009, see above)) were seeded in a 24-well plate in DMEM 10% FBS or M199 20% FBS for eight hours. Cells were transduced with 10^8 TU/ml. Eight hours after transduction, the medium wash was replaced. After 48 hours, cells were stimulated with TNFα (20 ng/mL) for eight hours and the same amount of protein extract was read in a luminometer. For PHD3 silencing, siRNA oligonucleotides were designed using the Invitrogen online siRNA design tool (world wide web at maidesigner.invitrogen.com). The following sequences (sense strands) and target positions were used: PHD3 siRNA: 5′-[…]-3′ (SEQ ID NO:1); scramble siRNA:5′-[…]-3′ (SEQ ID NO:2). In brief, one day after the transduction of macrophages with LV, cells were transfected using Lipofectamine 2000 (Invitrogen) according to the manufacturer's instructions. Preparation of the oligonucleotide-Lipofectamine 2000 complexes was done as followed: 25 pmol siRNA oligonucleotide (stock: 20 μM) was diluted in 50 μl Opti-MEM I reduced serum medium. Lipofectamine 2000 (1.5 μl) was diluted in 50 μl Opti-MEM I reduced serum medium and incubated for five minutes at room temperature. siRNA oligonucleotides were gently mixed with Lipofectamine 2000 and allowed to incubate at room temperature for twenty minutes to form complexes. Just before transfection, the cell culture medium was removed and cells were rinsed twice with serum-free Opti-MEM I medium. The Lipofectamine 2000-siRNA oligonucleotide complexes were added to each well in 400 μl of serum-free Opti-MEM medium for five hours. Afterwards, cells were incubated in complete medium for 48 hours at 37° C. in a CO2 incubator and assayed for gene knockdown (qRT-PCR) and luciferase activity. […]

NF-κB = assay: NF-κB-responsive firefly luciferase reporter assay in bone marrow-derived macrophages; type: cell-based, mice
Method: Transduction and Transfection of Bone Marrow-Derived Macrophages and Lung Endothelial Cells: To express an inducible NF-κB responsive firefly luciferase reporter, commercially available lentiviral vector particles (LV) were used (Cignal Lenti NF-κB Reporter; SABiosciences). 2.5×10^5 bone marrow-derived macrophages and 10^5 primary lung endothelial cells (isolated as previously described (Mazzone et al., 2009, see above)) were seeded in a 24-well plate in DMEM 10% FBS or M199 20% FBS for eight hours. Cells were transduced with 10^8 TU/ml. Eight hours after transduction, the medium wash was replaced. After 48 hours, cells were stimulated with TNFα (20 ng/mL) for eight hours and the same amount of protein extract was read in a luminometer. For PHD3 silencing, siRNA oligonucleotides were designed using the Invitrogen online siRNA design tool (world wide web at maidesigner.invitrogen.com). The following sequences (sense strands) and target positions were used: PHD3 siRNA: 5′-[…]-3′ (SEQ ID NO:1); scramble siRNA:5′-[…]-3′ (SEQ ID NO:2). In brief, one day after the transduction of macrophages with LV, cells were transfected using Lipofectamine 2000 (Invitrogen) according to the manufacturer's instructions. Preparation of the oligonucleotide-Lipofectamine 2000 complexes was done as followed: 25 pmol siRNA oligonucleotide (stock: 20 μM) was diluted in 50 μl Opti-MEM I reduced serum medium. Lipofectamine 2000 (1.5 μl) was diluted in 50 μl Opti-MEM I reduced serum medium and incubated for five minutes at room temperature. siRNA oligonucleotides were gently mixed with Lipofectamine 2000 and allowed to incubate at room temperature for twenty minutes to form complexes. Just before transfection, the cell culture medium was removed and cells were rinsed twice with serum-free Opti-MEM I medium. The Lipofectamine 2000-siRNA oligonucleotide complexes were added to each well in 400 μl of serum-free Opti-MEM medium for five hours. Afterwards, cells were incubated in complete medium for 48 hours at 37° C. in a CO2 incubator and assayed for gene knockdown (qRT-PCR) and luciferase activity. To assess if the increased NFkB activity observed in PHD2^+/− macrophages was dependent on the hydroxylase activity of PHD2, 48 hours before transduction, 4×10^6 bone marrow-derived macrophages were resuspended in 240 μl of Opti-MEM and were electroporated (250 V, 950 uF, ∝ Ω) with 7 μg of plasmids expressing a wild-type PHD2 (PHD2^wt) or a PHD2 containing a mutation at the catalytic site (PHD2^H313A).

[1] = test system: collateral branches, circulating TEMs; assay: Acute PHD2 deletion by tamoxifen in HERosa26CreERT→WT mice: TEMs, collaterals, ischemic damage; type: in vivo
Method: (§1) Bone Marrow (BM) Transplantation and Hematological Analysis: Balb/c WT and PHD2^+/− recipient mice were irradiated with 7.5 Gy. Subsequently, 5×10^6 bone marrow cells from green fluorescent protein^+ (GFP^+) WT or GFP^+ PHD2^+/− mice were injected intravenously via the tail vein. After one week, saline or AMD3100 (5 mg/kg) was administered intravenously and saline or imatinib ([…]) was administered by oral gavage for four weeks. Femoral artery ligation, treadmill running test and bismuth angiography were performed at six weeks after bone marrow reconstitution. Red and white blood cell count was determined using a hemocytometer on peripheral blood collected in heparin with capillary pipettes by retro-orbital bleeding. To assess the effect of acute deletion of macrophage-borne PHD2 on arteriogenesis, PHD2^Rosa26CreERT;lox/wt bone marrows were transplanted into lethally irradiated WT recipient mice. After five weeks, transplanted mice were injected i.p. with tamoxifen (1 mg/mouse; Sigma) or vehicle for five days. TEM quantification and femoral artery ligation were performed ten days after tamoxifen treatment as explained above. The bone marrow of PHD2^WT;Tie2:GFP or PHD2^HE;Tie2:GFP mice was transplanted in lethally irradiated WT mice. After five weeks, mice were injected systemically (5×10^11 vp) and locally (5×10^9 vp in two points of the adductor) with an AAV9 encoding the mouse extracellular domain of Tie2 fused to a flag tag (AAV9:sTie2). AAV9 encoding the human serum albumin was used as control. One week after injection of the viral vector, mice were subjected to femoral artery ligation. Blood and adductor samples were harvested at baseline and 72 hours post-ischemia and used to sort CD115^+GFP^+ circulating monocytes and F4/80^+GFP^+ macrophages.

[2] = test system: RAOSMC (Rat Aortic Smooth Muscle Cells); assay: SMC growth assay (WST-1) in coculture with PHD2+/- macrophages; type: cell-based; conditions: AMD3100, imatinib, alone or combined
Method: (§2) Cell Migration and Viability Assays: Migration and proliferation of SMCs and ECs were assessed by using 8 μm-pore Transwell peimeable plate for migration assays and 0.4 μm-pore Transwell permeable plate for proliferation assays (Corning Life Science). To determine cell migration toward the factors secreted by pMØ, pMØ were cultured in the lower chamber for twelve hours in RPMI 1% FBS or in M-199 1% FBS (migration assay), or 48 hours in DMEM-F12 1% FBS or in M-199 1% FBS (proliferation assay). For migration assays, hCASMC (Human coronary artery smooth muscle cells; from Lonza) and HUVEC (Human umbilical vein endothelial cells; from Lonza) were starved for twelve hours in their own medium at 1% FBS and, therefore, seeded in the upper chamber (5×10^3 cells in 200 μl of medium 1% FBS), with or without AMD3100 (1 μg/ml, Sigma-Aldrich, Dorset, U.K) and imatinib (2.5 μg/ml, Novartis). SMCs and HUVECs were incubated for two days or 24 hours, respectively, and migrated cells were fixed with 4% PFA, stained with 0.25% crystal violet/50% methanol and counted under the microscope. VEGF (100 ng/mL, R&D), PDGFB (100 ng/mL, R&D) or SDF 1 (100 ng/mL, R&D) were used as positive controls. […] The cell proliferative ability was then analyzed using WST-1 Cell Proliferation Assay (Roche Applied Biosciences) according to the manufacturer instructions after 24 hours of coculture with the pMØ. […]

[3] = test system: hCASMC (Human coronary artery smooth muscle cells); assay: SMC migration (Transwell) toward PHD2+/- macrophages; type: cell-based; conditions: AMD3100 1 μg/ml, imatinib 2.5 μg/ml, alone or combined
Method: as §2

[4] = test system: secondary and tertiary collateral arterioles; assay: Collateral vessel formation in bone marrow transplanted mice treated with AMD3100/imatinib (gelatin bismuth angiography); type: in vivo; conditions: for increased formation of second generation collateral branches / third generation collaterals: HE→WT mice, daily AMD3100 5 mg/kg or imatinib 50 mg/kg alone; for number of collateral branch arteries: WT→WT mice, alone or in combination
Method: Mouse Model of Hindlimb Ischemia: To induce hind limb ischemia, unilateral or bilateral ligations of the femoral artery and vein (proximal to the popliteal artery) and the cutaneous vessels branching from the caudal femoral artery side branch were performed without damaging the nervus femoralis (Luttun et al., Nat. Med. 8:831-840, 2002). By using this procedure, collateral flow to adductor muscles is preserved via arterioles branching from the femoral artery, therefore, 50% up to 60% of perfusion is preserved by this method. Two superficial preexisting collateral arterioles connecting the femoral and saphenous arteries were used for analysis. Functional perfusion measurements of the collateral region were performed using a Lisca PIM II camera (Gambro). Gelatin bismuth-based angiography was perfottned as described (Carmeliet et al., Nat. Med. 7:575-583, 2001) and analyzed by photoangiographs (Nikon D1 digital camera). Collateral side branches were categorized as follows: second-generation collateral arterioles directly branched off from the main collateral, whereas third-generation collateral arterioles were orientated perpendicularly to the second-generation branches. The number of secondary and tertiary collateral arterioles was counted. After perfusion-fixation, the muscle tissue between the two superficial collateral arterioles (adductor) was post-fixed in 2% paraformaldehyde (PFA) and paraffin-embedded, and were morphometrically analyzed. An endurance treadmill-running test was perfatmed at 12, 24, 48, and 72 hours after bilateral femoral artery ligation.
as §1

[5] = tamoxifen 1 mg/mouse for five days

VEGF
PHD2 transcripts (PHD2): did not affect

MCP1: monocyte chemotactic protein-1, ischemia-induced cytokine
PHD2 transcripts (PHD2): did not affect

5′-GCCGGCUGGGCAAAUACUAUGUCA-3′ (SEQ ID NO:1) [PHD3 siRNA]
knockdown of PHD3 vs scramble control (PHD3; PHD2LysCre;lox/lox macrophages): 37±0.01%
knockdown of PHD3 vs scramble control (PHD3; PHD2LysCre;lox/wt macrophages): 60±0.04%
knockdown of PHD3 vs scramble control (PHD3; PHD2LysCre;wt/wt macrophages): 63±0.03%
induction of NF-κB activity vs scramble control (NF-κB; PHD2LysCre;lox/lox macrophages): 70%
induction of NF-κB activity vs scramble control (NF-κB; PHD2LysCre;lox/wt macrophages): 14%
induction of NF-κB activity vs scramble control (NF-κB; PHD2LysCre;wt/wt macrophages): 22%

CC/C(=C(\c1ccccc1)c1ccc(OCCN(C)C)cc1)c1ccccc1 [tamoxifen]
ischemic damage ([1]; 72 hours after femoral artery ligation): greatly reduced
circulating TEMs ([1]; 14 days after tamoxifen 1 mg/mouse for five days, vs vehicle): almost three-fold increased
secondary collateral branches, abundance vs vehicle [1, 5]: 1.6 times
tertiary collateral branches, abundance vs vehicle [1, 5]: 2.3 times

Cc1ccc(NC(=O)c2ccc(CN3CCN(C)CC3)cc2)cc1Nc1nccc(-c2cccnc2)n1 [imatinib]
increased SMC growth by PHD2+/- macrophages [2]: abrogated
migration of SMCs toward PHD2+/- macrophages [3]: not effective
increased formation of second generation collateral branches [4]: only partially prevented
third generation collaterals [4]: affected
number of collateral branch arteries [4]: not affected

SDF1: Stromal cell-derived factor 1, alpha chemokine
PHD2 transcripts (PHD2): did not affect

c1cc(CN2CCCNCCNCCCNCC2)ccc1CN1CCCNCCNCCCNCC1 [AMD3100]
increased SMC growth by PHD2+/- macrophages [2]: abrogated
migration of SMCs toward PHD2+/- macrophages [3]: not effective
increased formation of second generation collateral branches [4]: only partially prevented
third generation collaterals [4]: affected
number of collateral branch arteries [4]: not affected

B1: angiopoietin-2: Tie2 ligand cytokine (Prospec) (protein, UniProt O15123 19-496, looked up)
Angiopoietin-2: YNNFRKSMDSIGKKQYQVQHGSCSYTFLLPEMDNCRSSSSPYVSNAVQRDAPLEYDDSVQRLQVLENIMENNTQWLMKLENYIQDNMKKEMVEIQQNAVQNQTAVMIEIGTNLLNQTAEQTRKLTDVEAQVLNQTTRLELQLLEHSLSTNKLEKQILDQTSEINKLQDKNSFLEKKVLAMEDKHIIQLQSIKEEKDQLQVLVSKQNSIIEELEKKIVTATVNNSVLQKQQHDLMETVNNLLTMMSTSNSAKDPTVAKEEQISFRDCAEVFKSGHTTNGIYTLTFPNSTEEIKAYCDMEAGGGGWTIIQRREDGSVDFQRTWKEYKVGFGNPSGEYWLGNEFVSQLTNQQRYVLKIHLKDWEGNEAYSLYEHFYLSSEELNYRIHLKGLTGTAGKISSISQPGNDFSTKDGDNDKCICKCSQMLTGGWWFDACGPSNLNGMYYPQRQNTNKFNGIKWYYWKGSGYSLKATTMMIRPADF
reduction of PHD2 levels (PHD2; WT monocytes/macrophages, only at 50 ng/ml): 15%

B2: PDGFB: platelet-derived growth factor beta protein (protein, UniProt P01127 82-190, looked up)
Platelet-derived growth …: SLGSLTIAEPAMIAECKTRTEVFEISRRLIDRTNANFLVWPPCVEVQRCSGCCNNRNVQCRPTQVQLRPVQVRKIEIVRKKPIFKKATVTLEDHLACKCETVAAARPVT
PHD2 transcripts (PHD2): did not affect

B3: PlGF: ischemia-induced cytokine (protein, UniProt P49763 19-221, looked up)
Placenta growth factor: LPAVPPQQWALSAGNGSSEVEVVPFQEVWGRSYCRALERLVDVVSEYPSEVEHMFSPSCVSLLRCTGCCGDENLHCVPVETANVTMQLLKIRSGDRPSYVELTFSQHVRCECRHSPGRQSPDMPGDFRADAPSFLPPRRSLPMLFRMEWGCALTGSQSAVWPSSPVPEEIPRMHPGRNGKKQQRKPLREKMKPERCGDAVPRR
PHD2 transcripts (PHD2): did not affect
